Measured values reported in US7915291B2, “Hepatitis C virus inhibitors” (Bristol-Myers Squibb Company, priority 2002, dated 2011).
Like-named read-outs stand apart in the source and are kept apart here.

Columns and labels:
[1] = biological target: HCV NS3/4A protease complex, BMS strain (UniProt P27958, C1454S/C1711G, species not given/STRAIN_BMS); experiment: Recombinant HCV NS3/4A protease complex FRET peptide assay (BMS strain); assay type: biochemical, HCV genotype 1a
Procedure, shortened: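 Percent inhibition taken from the linear-range fluorescence slope relative to uninhibited control, read kinetically for about 15 min at 25° C. Enzyme (2-3 nM, BMS NS3/4A complex, lysine-tailed, Ni-NTA purified) met compound for 1 min before 2 μM FRET depsipeptide substrate started cleavage.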

[2] = test system: HCV replicon in Huh7 cells; experiment: HCV replicon cell-based assay; parameters: species or system HCV strain 1B; conditions: HCV replicon, Huh7 cells, read-out: EC50 range
[3] = NS3/4A BMS strain; read-out: IC50 range

Structure (SMILES) | IC50 [1, 3] | EC50 ([2]; Hepatitis C virus, Huh-7) | EC50 [2] | IC50 ([1]; read-out: IC50 range; NS3/4A BMS strain)
C=CC1C[C@]1(NC(=O)[C@@H]1C[C@@H](Oc2nccc(-c3ccco3)n2)CN1C(=O)[C@@H](NC(=O)CC1CC1)C(C)(C)C)C(=O)NS(=O)(=O)C1CC1 (stereo partly shown) [Compound 339] | < 100 nM | 1000 to 10000 nM |  | 
C=C[C@@H]1C[C@]1(NC(=O)[C@@H]1C[C@@H](Oc2ncc(OC)c3cc(OC)ccc23)CN1C(=O)[C@@H](NC(=O)OC(C)(C)C)C(C)(C)C)C(=O)NS(=O)(=O)C1CC1 [Compound 279] | < 100 nM | < 100 nM |  | 
C=C[C@@H]1C[C@]1(NC(=O)[C@@H]1C[C@@H](Oc2ccnc3ccccc23)CN1C(=O)[C@@H](NC(=O)OC(C)(C)C)C(C)(C)C)C(=O)NS(C)(=O)=O [Compound 386] | 100 to 1000 nM | 1000 to 10000 nM |  | 
C=C[C@@H]1C[C@]1(NC(=O)[C@@H]1C[C@@H](Oc2nccc3cc(OC)ccc23)CN1C(=O)[C@@H](NC(=O)OC(C)(C)C)c1ccccc1)C(=O)NS(=O)(=O)C1CC1 [Compound 134] | < 100 nM | 100 to 1000 nM |  | 
C=C[C@@H]1C[C@]1(NC(=O)[C@@H]1C[C@@H](Oc2nccc3ccccc23)CN1C(=O)[C@@H](NC(=O)OCC(C)(C)C)C(C)(C)C)C(=O)NS(=O)(=O)C1CC1 [Compound 125] | < 100 nM | < 100 nM |  | 
C=C[C@@H]1C[C@]1(NC(=O)[C@@H]1C[C@@H](Oc2nccc3c2ccc2ccoc23)CN1C(=O)[C@@H](NC(=O)OC(C)(C)C)C(C)(C)C)C(=O)NS(=O)(=O)C1CC1 [Compound 266] | < 100 nM | < 100 nM |  | 
C=C[C@@H]1C[C@]1(NC(=O)[C@@H]1C[C@@H](Oc2cncc(-c3nccs3)c2)CN1C(=O)[C@@H](NC(=O)OC(C)(C)C)C(C)(C)C)C(=O)NS(=O)(=O)C1CC1 [Compound 432] | < 100 nM | 100 to 1000 nM |  | 
C=C[C@@H]1C[C@]1(NC(=O)[C@@H]1C[C@@H](Oc2cccc(-c3ccccc3)n2)CN1C(=O)[C@@H](NC(=O)OC(C)(C)C)C(C)(C)C)C(=O)NS(=O)(=O)C1CC1 [Compound 436] | < 100 nM | 100 to 1000 nM |  | 
C=C[C@@H]1C[C@]1(NC(=O)[C@@H]1C[C@@H](Oc2nccc3c4c(ccc23)OC(F)(F)O4)CN1C(=O)[C@@H](NC(=O)OC(C)(C)C)C(C)(C)C)C(=O)NS(=O)(=O)C1CC1 [Compound 287] | < 100 nM | 100 to 1000 nM |  | 
C=C[C@@H]1C[C@]1(NC(=O)[C@@H]1C[C@@H](Oc2ccnc3cc(Cl)ccc23)CN1C(=O)[C@@H](NC(=O)OC1CCCC1)C(C)(C)C)C(=O)NS(=O)(=O)C1CC1 [Compound 372] | < 100 nM | < 100 nM |  | 
C=C[C@@H]1C[C@]1(NC(=O)[C@@H]1C[C@@H](Oc2nc(-c3ccc(OC)cc3)cc3ccccc23)CN1C(=O)[C@@H](NC(=O)OC(C)(C)C)C(C)(C)C)C(=O)NS(=O)(=O)C1CC1 [Compound 26] | < 100 nM | < 100 nM |  | 
C=CC1C[C@]1(NC(=O)[C@@H]1C[C@@H](COc2cccc(-c3cccs3)n2)CN1C(=O)[C@@H](NC(=O)OC)C(C)(C)C)C(=O)NS(=O)(=O)C1CC1 (stereo partly shown) [Compound 356] | 100 to 1000 nM | 1000 to 10000 nM |  | 
C=C[C@@H]1C[C@]1(NC(=O)[C@@H]1CC(Oc2nccc3cc(OC)ccc23)CN1C(=O)[C@@H](NC(=O)C(CC)CC)C(C)(C)C)C(=O)NS(=O)(=O)C1CC1 (stereo partly shown) [Compound 57] | < 100 nM | 100 to 1000 nM |  | 
CC[C@@H]1C[C@]1(NC(=O)[C@@H]1C[C@@H](Oc2cc3c(Cl)nccc3cc2OC)CN1C(=O)[C@@H](NC(=O)OC(C)(C)C)C(C)(C)C)C(=O)NS(=O)(=O)C1CC1 [Compound 300] | < 100 nM | 100 to 1000 nM |  | 
C=CC1C[C@]1(NC(=O)[C@@H]1C[C@@H](Oc2nnc(OC)c3ccccc23)CN1C(=O)[C@@H](NC(=O)OC(C)(C)C)C(C)(C)C)C(=O)NS(=O)(=O)C1CC1 (stereo partly drawn) [Compound 201, BOCNH-P3(L-t-BuGly)-P2-[(4R)-(4-methoxyphthalazine-1-oxo)-S -proline]-P1(1R,2S VinylAcca)-CONHSO2Cyclopropane] | < 100 nM | < 100 nM |  | 
C=CC1C[C@]1(NC(=O)[C@@H]1C[C@@H](Oc2nc(-c3csc(N(C)C)n3)cc3cc(OC)ccc23)CN1C(=O)[C@@H](NC(=O)OC(C)(C)C)C(C)(C)C)C(=O)NS(=O)(=O)C1CC1 (stereo partly shown) [Compound 322] | < 100 nM | < 100 nM |  | 

Structure (SMILES) | IC50 [1, 3] | EC50 ([2]; Hepatitis C virus, Huh-7) | EC50 [2] | IC50 ([1]; read-out: IC50 range; NS3/4A BMS strain)
CC[C@@H]1C[C@]1(NC(=O)[C@@H]1C[C@@H](Oc2nccc3ccc(C)cc23)CN1C(=O)[C@@H](NC(=O)OC(C)(C)C)C(C)(C)C)C(=O)NS(=O)(=O)C1CC1 [Compound 296] | < 100 nM | 100 to 1000 nM |  | 
C=C[C@@H]1C[C@]1(NC(=O)[C@@H]1C[C@@H](Oc2ccnc(-c3ccoc3)c2)CN1C(=O)[C@@H](NC(=O)OC1CCCC1)C(C)(C)C)C(=O)NS(=O)(=O)C1CC1 [Compound 426] | < 100 nM | 100 to 1000 nM |  | 
C=C[C@@H]1C[C@]1(NC(=O)[C@@H]1C[C@@H](Oc2ccnc(-c3nccs3)c2)CN1C(=O)[C@@H](NC(=O)OC1CCCC1)C(C)(C)C)C(=O)NS(=O)(=O)C1CC1 [Compound 431] | < 100 nM | 100 to 1000 nM |  | 
CC[C@@H]1C[C@]1(NC(=O)[C@@H]1C[C@@H](Oc2nccc3c(C)cccc23)CN1C(=O)[C@@H](NC(=O)OC(C)(C)C)C(C)(C)C)C(=O)NS(=O)(=O)C1CC1 [Compound 293] | < 100 nM | 100 to 1000 nM |  | 
C=C[C@@H]1C[C@]1(NC(=O)[C@@H]1CC(Oc2nccc3cc(OC)ccc23)CN1C(=O)[C@H](CCCC)N(C)C(=O)OC(C)(C)C)C(=O)NS(=O)(=O)C1CC1 (stereo partly shown) [Compound 87] | 1000 to 10000 nM | 10000 to 100000 nM |  | 
C=C[C@@H]1C[C@]1(NC(=O)[C@@H]1C[C@@H](Oc2nc(-c3ccco3)c(OC)c3ccccc23)CN1C(=O)[C@@H](NC(=O)OC(C)(C)C)C(C)(C)C)C(=O)NS(=O)(=O)C1CC1 [Compound 230, BOCNH-P3(L-t-BuGly)-P2[(4R)-(3-furan-2-yl-4-methoxy -isoquinolin-1-oxo)-S-proline]-P1(1R,2S VinylAcca)-CONHSO2Cyclopropane] | 100 to 1000 nM |  | 100 to 1000 nM | 
C=C[C@@H]1C[C@]1(NC(=O)[C@@H]1C[C@@H](Oc2nc(C)cc3ccccc23)CN1C(=O)[C@@H](NC(=O)OC(C)(C)C)C(C)(C)C)C(=O)NS(=O)(=O)C1CC1 [Compound 33] | < 100 nM | < 100 nM |  | 
C=CC1C[C@]1(NC(=O)[C@@H]1C[C@@H](Oc2nccc3c(SC)c(OC)ccc23)CN1C(=O)[C@@H](NC(=O)OC(C)(C)C)C(C)(C)C)C(=O)NS(=O)(=O)C1CC1 (stereo partly drawn) [Compound 207, BOCNH-P3(L-t-BuGly)-P2 [(4R)-(6-methoxy-5-methylthio-isoquinolin-1-oxo)-S-proline]-P1(1R,2S VinylAcca)-CONHSO2Cyclopropane] | < 100 nM | < 100 nM |  | 
C=C[C@@H]1C[C@]1(NC(=O)[C@@H]1C[C@@H](Oc2nccc3cc(OC)c(F)cc23)CN1C(=O)[C@@H](NC(=O)OC(C)(C)C)C(C)(C)C)C(=O)NS(=O)(=O)C1CC1 [Compound 261] | < 100 nM | < 100 nM |  | 
C=C[C@@H]1C[C@]1(NC(=O)[C@@H]1C[C@@H](Oc2nccc3cc(OC)ccc23)CN1C(=O)[C@@H](NC(=O)N[C@H](C(=O)OC(C)(C)C)C(C)C)C(C)(C)C)C(=O)NS(=O)(=O)C1CC1 [Compound 152] | < 100 nM | < 100 nM |  | 
C=C[C@@H]1C[C@]1(NC(=O)[C@@H]1CC(Oc2nc(-c3ccccc3)cc3ccccc23)CN1C(=O)[C@@H](NC(=O)OC(C)(C)C)[C@H](C)O)C(=O)NS(=O)(=O)C1CC1 (stereo partly shown) [Compound 107] |  | 100 to 1000 nM |  | < 100 nM
C=C[C@@H]1C[C@]1(NC(=O)[C@@H]1C[C@@H](Oc2nccc3cc(OC)ccc23)CN1C(=O)[C@@H](NC(=O)OC(C)(C)CC)C(C)(C)C)C(=O)NS(=O)(=O)C1CCC1 [Compound 382] | < 100 nM | 100 to 1000 nM |  | 
C=CC1C[C@]1(NC(=O)[C@@H]1C[C@@H](Oc2nc3ccccc3nc2O)CN1C(=O)[C@@H](NC(=O)OC(C)(C)C)C(C)(C)C)C(=O)NS(=O)(=O)C1CC1 (stereo partly drawn) [Compound 243, BOCNH-P3(L-t-BuGly)-P2[(4R)-(3-hydroxyquinoxaline-2-oxo)-S -proline]-P1(1R,2S VinylAcca)-CONHSO2Cyclopropane] | 100 to 1000 nM | 10000 to 100000 nM |  | 
C=CC1CC1(NC(=O)[C@@H]1C[C@@H](OCc2ccc3ccccc3c2)CN1C(=O)[C@@H](NC(=O)OC(C)(C)C)C(C)(C)C)C(=O)NS(C)(=O)=O (stereo partly shown) [Compound 454] | 100 to 1000 nM | 1000 to 10000 nM |  | 
C=C[C@@H]1C[C@]1(NC(=O)[C@@H]1C[C@@H](Oc2nccc3cc(OC)ccc23)CN1C(=O)[C@H](CC(=O)OC)NC(=O)OC(C)(C)C)C(=O)NS(=O)(=O)C1CC1 [Compound 138] | < 100 nM | < 100 nM |  | 
C=C[C@@H]1C[C@]1(NC(=O)[C@@H]1C[C@@H](Oc2nccc3cc(OCC)ccc23)CN1C(=O)[C@@H](NC(=O)OC(C)(C)C)C(C)(C)C)C(=O)NS(=O)(=O)C1CC1 [Compound 42] | < 100 nM | < 100 nM |  | 
